Data on 19 compounds can be found in patent US4376858A, “2-4-Diamino-5-methyl-6-[(3,4,5-trimethoxyanilino)methyl]quinazoline salts” (Warner Lambert Company, priority 1982, dated 1983).

Structures can show the parent of a compound that is named as a salt.

Data set [1] can be described thus: Solubility of prepared 2,4-diamino-5-methyl-6-[(3,4,5-trimethoxyanilino)methyl]quinazoline salts in water. In kind it is physicochemical. The following applies: Table II, Method B: saturated 5.0 ml H2O overnight, filtrate diluted with 0.01 N HCl, 1440 min.
Test in data set [2]: as above
In kind it is physicochemical. The following applies: for Solubility in water: Table II, Method A: saturated 2.0 ml H2O overnight, filtrate diluted with methanol, 1440 min; for Filtrate pH / Solubility: Table III, Prepared Salt; for water solubility (in words): qualitative conclusion from Tables I and II. As to the method:
Method A: Saturated 2.0 ml H2 O overnight, 0.5 ml of filtrate diluted to 10.0 ml with methanol, added 1 drop of 6 N KOH to UV cell.

Data set [3] can be described thus: Solubility of the base 2,4-diamino-5-methyl-6-[(3,4,5-trimethoxyanilino)methyl]quinazoline in aqueous acids (shake-out). Type of data set: physicochemical. The following applies: for Base Solubility in acid soln.: Table I; for Solubility / Filtrate pH: Table III.
The next data set has as its system malaria. The following applies: reported in Great Britain Patent Specification No. 1,345,502; cited from earlier work.
In a further data set the test system is bacteria. The following applies: reported in Great Britain Patent Specification No. 1,345,502; cited from earlier work.
Another data set concerns neoplasms. The following applies: Biochemical Pharmacology 28, 1983-1987; Cancer Research 39, 293-304; cited from earlier work.
A short description of data set [4]: Stability and solid form of the salts. In kind it is physicochemical. The following applies: qualitative.
The mark [5] stands for this setting: acid conc. .1 M, acid/base 2/1, * not saturated (isethionic, ethoxyacetic).
[6] abbreviates: 0.1 M acid per method (head: 1 M soln.), 0.05 M base, shaken 4-12 hours, UV 321 nm.
[7] abbreviates: lines marked *: .05 M acid, 1/1 acid/base.
Where [8] appears, read: listed as 2,4-diamino-5-methyl-6-[(3,4,5-trimethoxyanilino)methyl]quinazoline glucuronate.
Where [9] appears, read: acid conc. .06 M, acid/base 1/1.

`COc1cc(NCc2ccc3nc(N)nc(N)c3c2C)cc(OC)c1OC` [3-Hydroxypropyl sulfonate]: the Solubility in water in data set [1] is on record as 4.73 mg base/ml.

With `COc1cc(NCc2ccc3nc(N)nc(N)c3c2C)cc(OC)c1OC` [Acetate], the Solubility in water in data set [2] was found to be 1.72 mg base/ml.

In the case of `COc1cc(NCc2ccc3nc(N)nc(N)c3c2C)cc(OC)c1OC` [Benzene sulfonate], the “Base Solubility in acid soln.” value in data set [3] (lines marked *: .05 M acid, 1/1 acid/base, listed as Benzene sulfonic) stood at 1.89 mg base/ml; in data set [3] (0.1 M acid per method (head: 1 M soln.), 0.05 M base, shaken 4-12 hours, UV 321 nm, listed as Benzene sulfonic) it was 7.17 mg base/ml. In addition, the Solubility in data set [3] (acid conc. .05 M, acid/base 1/1, * not saturated (isethionic), listed as Benzene sulfonic) is listed as 1.89 mg base/ml; in data set [3] (acid conc. .1 M, acid/base 2/1, * not saturated (isethionic, ethoxyacetic), listed as Benzene sulfonic), 7.17 mg base/ml; in data set [2] (listed as Benzene sulfonic), 1.24 mg base/ml. Moreover, the “Filtrate pH” value came to 2.95 in data set [3] (acid conc. .05 M, acid/base 1/1, listed as Benzene sulfonic); 2.95 in data set [3] (acid conc. .1 M, acid/base 2/1, listed as Benzene sulfonic); 4.45 in data set [2] (listed as Benzene sulfonic). The Solubility in water in data set [1] was 1.24 mg base/ml.

On to `COc1cc(NCc2ccc3nc(N)nc(N)c3c2C)cc(OC)c1OC` [Ethane sulfonate], for which the Solubility in water in data set [1] came to 2.64 mg base/ml.

On to `COc1cc(NCc2ccc3nc(N)nc(N)c3c2C)cc(OC)c1OC` [Ethoxyacetate], for which the “Base Solubility in acid soln.” value came to 19.7 mg base/ml in data set [3] (lines marked *: .05 M acid, 1/1 acid/base, listed as Ethoxyacetic) and 19.5 mg base/ml in data set [3] (0.1 M acid per method (head: 1 M soln.), 0.05 M base, shaken 4-12 hours, UV 321 nm, listed as Ethoxyacetic). The Solubility in data set [3] (acid conc. .065 M, acid/base 1/1, * not saturated) is recorded as 19.7 mg base/ml; in data set [3] (setting [5]), 19.5 mg base/ml; in data set [2] (listed as Ethoxyacetic) it was 6.3 mg base/ml. Also, the Solubility in water in data set [1] is on record as 6.3 mg base/ml.

In the case of `COc1cc(NCc2ccc3nc(N)nc(N)c3c2C)cc(OC)c1OC` [Free base, 2,4-diamino-5-methyl-6-[(3,4,5-trimethoxyanilino)methyl]quinazoline], the Solubility in water is given as 0.2 mg base/ml in data set [2] and 0.1 mg base/ml in data set [1]. Also, the antimalarial activity entry in the data set on malaria is “exhibiting antimalarial and antibacterial activity”. Further, the antibacterial activity entry in the data set on bacteria was “exhibiting antimalarial and antibacterial activity”. Further, the antineoplastic activity entry with neoplasms is reported as “exhibit antineoplastic activity”.

Consider `COc1cc(NCc2ccc3nc(N)nc(N)c3c2C)cc(OC)c1OC` [Galacturonic], for which the “Base Solubility in acid soln.” value in data set [3] (setting [6]) stood at 25.1 mg base/ml. For the same compound, in data set [4] (listed as galacturonate), the “solid form (in words)” value is “undesirable amorphous form”.

With `COc1cc(NCc2ccc3nc(N)nc(N)c3c2C)cc(OC)c1OC` [Gentisate], the Solubility in water is given as 1.4-7.06 mg base/ml in data set [2] and 0.28 mg base/ml in data set [1].

As for `COc1cc(NCc2ccc3nc(N)nc(N)c3c2C)cc(OC)c1OC` [Gluconatete], the Solubility in water in data set [1] was found to be 2.55 mg base/ml.

Consider `COc1cc(NCc2ccc3nc(N)nc(N)c3c2C)cc(OC)c1OC` [Gluconic], for which the “Base Solubility in acid soln.” value in data set [3] (setting [7]) is 19.8 mg base/ml. The “solid form (in words)” value in data set [4] (listed as gluconate) was “undesirable amorphous form”.

As to `COc1cc(NCc2ccc3nc(N)nc(N)c3c2C)cc(OC)c1OC` [Glucuronate, 2,4-Diamino-5-methyl-6-[(3,4,5-trimethoxyanilino)methyl]quinazoline D-glucuronate], the “Base Solubility in acid soln.” value in data set [3] (0.1 M acid per method (head: 1 M soln.), 0.05 M base, shaken 4-12 hours, UV 321 nm, listed as Glucuronic) is 34.35 mg base/ml. In data set [2] (setting [8]), the “water solubility (in words)” value is listed as “higher degree of solubility”. In addition, the “solid form (in words)” value in data set [4] (setting [8]) is “powdery rather than crystalline”. In data set [1], the Solubility in water was found to be 109.4 mg base/ml.

As to `COc1cc(NCc2ccc3nc(N)nc(N)c3c2C)cc(OC)c1OC` [Glycolic], the results for the “Base Solubility in acid soln.” value in data set [3] (setting [7]) and in data set [3] (setting [6]) were 4.73 mg base/ml and 4.13 mg base/ml, respectively. In addition, the “Filtrate pH” value in data set [3] (acid conc. .1 M, acid/base 1/1) is on record as 3.28; in data set [3] (acid conc. .1 M, acid/base 2/1), 3.00; in data set [2] it was 5.30. Moreover, the Solubility came to 4.73 mg base/ml in data set [3] (acid conc. .1 M, acid/base 1/1); 4.13 mg base/ml in data set [3] (setting [5]); 2.55 mg base/ml in data set [2].

Regarding `COc1cc(NCc2ccc3nc(N)nc(N)c3c2C)cc(OC)c1OC` [Hydrochloride], the Solubility in water in data set [2] turned out to be 3.22 mg base/ml.

`COc1cc(NCc2ccc3nc(N)nc(N)c3c2C)cc(OC)c1OC` [Isethionate, 2,4-Diamino-5-methyl-6-[(3,4,5-trimethoxyanilino)methyl]quinazoline monoisethionate]: the “Base Solubility in acid soln.” value in data set [3] (lines marked *: .05 M acid, 1/1 acid/base, listed as Isethionic) is given as 17.3 mg base/ml; in data set [3] (0.1 M acid per method (head: 1 M soln.), 0.05 M base, shaken 4-12 hours, UV 321 nm, listed as Isethionic), 16.3 mg base/ml. For the same compound, the Solubility is given as 17.34 mg base/ml in data set [3] (acid conc. .05 M, acid/base 1/1, * not saturated (isethionic)); 16.33 mg base/ml in data set [3] (setting [5]); 24.8 mg base/ml in data set [2] (listed as Isethionic). Also, the “Filtrate pH” value in data set [3] (acid conc. .05 M, acid/base 1/1, listed as Isethionic) is on record as 3.70; in data set [3] (acid conc. .1 M, acid/base 2/1, listed as Isethionic) it was 1.83; in data set [2] (listed as Isethionic) it was 5.30. For the same compound, the Solubility in water in data set [2] was found to be 23.93 mg base/ml; in data set [1] it was 24.78 mg base/ml. Besides, the “water solubility (in words)” value in data set [2] is reported as “highly water soluble”. In addition, the “solid form (in words)” value in data set [4] is given as “crystalline”. For the same compound, the “stability (in words)” value in data set [4] is recorded as “stable”.

For the compound `COc1cc(NCc2ccc3nc(N)nc(N)c3c2C)cc(OC)c1OC` [Lactate], the Solubility in water in data set [2] came out at 4.34 mg base/ml.

Turning to `COc1cc(NCc2ccc3nc(N)nc(N)c3c2C)cc(OC)c1OC` [Methane sulfonic], the figures for the “Base Solubility in acid soln.” value in data set [3] (setting [7]) and in data set [3] (setting [6]) were 6.49 mg base/ml and 9.83 mg base/ml, respectively. In addition, the “Filtrate pH” value in data set [3] (setting [9]) turned out to be 3.00; in data set [2], 5.32. Also, the Solubility in data set [3] (setting [9]) was determined as 6.5 mg base/ml; in data set [3] (acid conc. .1 M, acid/base 1/.9) it was 8.74 mg base/ml; in data set [2], 4.9 mg base/ml.

As to `COc1cc(NCc2ccc3nc(N)nc(N)c3c2C)cc(OC)c1OC` [N--(Morpholine)ethane-2-sulfonic], in data set [3] (setting [6]), the “Base Solubility in acid soln.” value is 11.2 mg base/ml.

With `COc1cc(NCc2ccc3nc(N)nc(N)c3c2C)cc(OC)c1OC` [d-Tartaric], in data set [3] (setting [6]), the “Base Solubility in acid soln.” value is given as 1.57 mg base/ml.

As for `COc1cc(NCc2ccc3nc(N)nc(N)c3c2C)cc(OC)c1OC` [p-Toluene sulfonic], the “Base Solubility in acid soln.” value in data set [3] (setting [6]) amounted to 2.74 mg base/ml.
